Measurements reported in patent US20260049089A1, “KRAS INHIBITOR COMPOUND” (SHANGHAI APEIRON THERAPEUTICS COMPANY LIMITED, priority 2022, published 2026).
Several values for one entry are separate records, joined by “and”; a condition that tells them apart may be missing. Identical values can stand only once. Like-named read-outs stand apart in the source and are kept apart here.

How the values were obtained:
Type in all cases: cell-based
[1] = test system: pERK in AGS cells; assay: ERK phosphorylation cell assay, AGS; details: 3 hours compound incubation, read-out: pERK AGS_IC50
Protocol: (§1) • Day 1: AGS cells were seeded into a 384-well cell culture plate and incubated overnight at 37° C. with 5% CO2 in a cell culture incubator. • Day 2: Compounds were added to the plate using an Echo550 liquid handler, followed by incubation at 37° C. with 5% CO2 in a cell culture incubator for 3 hours. Subsequently, the cells were fixed with paraformaldehyde, permeabilized with methanol, and blocked with blocking buffer. A primary antibody mixture (rabbit anti-pERK, mouse anti-GAPDH) was added, and the plate was incubated overnight at 4° C. • Day 3: The primary antibodies were removed, and a secondary antibody mixture (goat anti-rabbit 800CW, goat anti-mouse 680RD) was added. The plate was incubated at room temperature in the dark. After three washes with PBST, the plate was inverted and centrifuged for 1 minute. Fluorescence signal values were read using an Odyssey CLx imaging system.
(§2) [formula] • Negative control: DMSO • Positive control: 10 μM Reference • Fitted using XLFit 5.0 with the following parameters:
(§3) [formula] • X: Log of compound concentration • Y: Mean relative expression levels of p-ERK across replicates

[2] = test system: pERK in AsPC-1 cells; assay: ERK phosphorylation cell assay, AsPC-1; details: read-out: pERK AsPC-1_IC50
Protocol: [Worded in the source for another cell line; this cell line is reported under the same test.] as §1, §2, §3

[3] = test system: AGS cells; assay: 3D cell proliferation assay (CellTiter-Glo 3D), AGS; details: 5 days, read-out: 3D Proliferation Inhibition AGS_IC50
Protocol: (§4) Using a nanoliter liquid handling system (LABCYTE, P-0200), the diluted test compounds were added to a 384-well low-adsorption cell culture plate. Cells were seeded into the wells, and the plate was placed in an incubator at 37° C. with 5% CO2. After co-incubating the compounds and cells for 5 days, CellTiter-Glo® 3D reagent was added. Luminescence values were measured using an EnVision Multilabel Plate Reader (luminescence is proportional to the ATP content in the system, and ATP content directly reflects the number of viable cells). Finally, the IC50 values (half-maximal inhibitory concentrations) of the compounds were determined using non-linear fitting equations in XLFit software with the following parameters: […]
(§5) X: Logarithm of compound concentration • Y: Inhibition rate (%)
(§6) [formula] • Negative control: DMSO • Positive control: Medium only

[4] = test system: AsPC-1 cells; assay: 3D cell proliferation assay (CellTiter-Glo 3D), AsPC-1; details: 5 days, read-out: 3D Proliferation Inhibition AsPC-1_IC50
Protocol: as §4, §5, §6

[5] = Homo sapiens, ASPC1, AsPC-1 cells

Molecule	IC50 ([1]; Homo sapiens, AGS, 3 h)	IC50 [2, 5]	IC50 ([3]; Homo sapiens, AGS, 120 h)	IC50 ([4]; Homo sapiens, ASPC1, 120 h)	IC50 [1]	IC50 ([2]; AsPC-1 cells)	IC50 [4]	IC50 [3]	IC50 ([1]; Homo sapiens)	IC50 ([3]; Homo sapiens, 120 h)
C=C1CN2CCC[C@@]2(COc2nc(N3CCC[C@@](C)(O)C3)c3cc4c(c(F)c3n2)-c2cc(N)cc3ccc(F)c(c23)CCOCCN4C)C1 [Example 56, (R)-1-(17-amino-3,15-difluoro-9-methyl-13-(((S)-2-methylenetetrahydro-1H-pyrazin-7a(5H)-yl)methoxy)-4,5,8,9-tetrahydro-7H-naphtho[1′,8′:7,8,9][1]oxa[4]azacycloundeca[5,6-g]quinazoline-11-yl)-3-methylpiperidin-3-ol]	206 nM	707 nM	668 nM	1460 nM	–	–	–	–	–	–
C[C@@]1(O)CCCN(c2nc(OCC34CCCN3CCC4)nc3c(F)c4c(cc23)NCCCCCc2c(F)ccc3cc(O)cc-4c23)C1 (single isomer, unassigned) [Example 21A]	–	–	226 nM	2630 nM	93 nM and 99 nM	938 nM and 721 nM	–	–	–	–
C[C@@]1(O)CCCN(c2nc(OCC3(N4CCOCC4)CC3)nc3c(F)c4c(cc23)NCCCCCc2c(F)ccc3cc(O)cc-4c23)C1 (single isomer, unassigned) [Example 33A]	> 10000 nM	> 10000 nM	2310 nM	–	–	–	1490 nM	–	–	–
C[C@H](Oc1nc(N2CCC[C@@](C)(O)C2)c2cc3c(c(F)c2n1)-c1cc(O)cc2ccc(F)c(c12)CCCCCN3)[C@@H]1CCCN1C [Example 35, 3,15-Difluoro-11-((R)-3-hydroxy-3-methylpiperidin-1-yl)-13-((S)-1-((S)-1-methylpyrrolidin-2-yl)ethoxy)-4,5,6,7,8,9-hexahydro-naphtho[1′,8′:4,5,6][1]azacycloundecino[2,3-g]quinazoline-17-ol]	4580 nM	> 10000 nM	2690 nM	2830 nM	–	–	–	–	–	–
CN(C)C1CN(c2nc(N3CCC[C@@](C)(O)C3)c3cc4c(c(F)c3n2)-c2cc(O)cc3ccc(F)c(c23)CCCCCN4)C1 [Example 39, (R)-13-(3-(dimethylamino)azetidinyl)-3,15-difluoro-11-(3-hydroxy-3-methylpiperidin-1-yl)-4,5,6,7,8,9-hexahydro-naphtho[1′,8′:4,5,6][1]azacycloundecino[2,3-g]quinazoline-17-ol]	> 10000 nM	> 10000 nM	6390 nM	> 10000 nM	–	–	–	–	–	–
Oc1cc2c3c(c(F)ccc3c1)CCCCCNc1cc3c(N4CC5CCC(C4)N5)nc(OC[C@@]45CCCN4C[C@H](F)C5)nc3c(F)c1-2 [Example 5, 11-((1R,5S)-3,8-Diazabicyclo[3.2.1]octane-3-yl)-3,15-difluoro-13-(((2R,7aS)-2-fluorotetrahydro-1H-pyrrolin-7a(5H)-yl)methoxy)-4,5,6,7,8,9-hexahydro-naphtho[1′,8′:4,5,6][1]azacycloundecino[2,3-g]quinazolin-17-ol]	12 nM	41 nM	128 nM	196 nM	–	–	–	–	–	–
C=C1CN2CCCC2(COc2nc(N3CCC[C@@](C)(O)C3)c3cc4c(c(F)c3n2)-c2cc(O)cc3ccc(F)c(c23)CCCCCN4C)C1 (single isomer, unassigned) [Example 22A]	–	–	–	–	26 nM	85 nM	166 nM	90 nM	–	–
C=C1CN2CCCC2(COc2nc(N3CCC[C@@](C)(O)C3)c3cc4c(c(F)c3n2)-c2cc(O)cc3ccc(F)c(c23)CCCCCN4C(C)=O)C1 (stereo partly drawn) [Example 44, 1-(3,15-Difluoro-17-hydroxy-11-((R)-3-hydroxy-3-methylpiperidin-1-yl)-13-((2-methylene-tetrahydro-1H-pyrazin-7a(5H)-yl)methoxy)-5,6,7,8-tetrahydronaphtho[1′,8′:4,5,6][1]azacycloundecino[2,3-g]quinazolin-9(4H)-yl)ethan-1-one]	–	–	–	3900 nM	–	–	–	–	490 nM	1860 nM
C[C@@]1(O)CCCN(c2nc(OCC34CCCN3CC3(CC3)C4)nc3c(F)c4c(cc23)NCCCCCc2c(F)ccc3cc(O)cc-4c23)C1 (stereo partly shown) [Example 23]	135 nM	728 nM	346 nM	2100 nM	157 nM	754 nM	–	–	–	–
C=C1CN2CCC[C@@]2(COc2nc(N3CCC[C@@](C)(O)C3)c3cc4c(c(F)c3n2)-c2cc(O)cc3ccc(F)c(c23)CCOCCN4)C1 (single isomer, unassigned) [Example 42B]	–	–	–	–	12 nM	74 nM	341 nM	61 nM	–	–
CN1CCC[C@H]1COc1nc(N2CCC[C@@](C)(O)C2)c2cc3c(c(F)c2n1)-c1cc(O)cc2ccc(F)c(c12)CCCCCN3 (single isomer, unassigned) [Example 28B]	–	–	–	–	> 10000 nM	> 10000 nM	3550 nM	3360 nM	–	–
C[C@@]1(O)CCCN(c2nc(OCC34CCCN3CC(=CF)C4)nc3c(F)c4c(cc23)NCCCCCc2c(F)ccc3cc(O)cc-4c23)C1 (stereo partly shown) [Example 30]	55 nM	171 nM	177 nM	534 nM	–	–	–	–	–	–
3,15-difluoro-13-((2R,7aS)-2-fluorotetrahydro-1H-pyrazin-7a(5H)-yl)methoxy)-11-((R)-3-hydroxy-3-methylpiperidin-1-yl)-4,5,8,9-tetrahydro-7H-naphtho[1′,8′:7,8,9][1]oxa[4]azacycloundeca[5,6-g]quinazoline-17-ol [Example 43A]	–	–	–	–	4.6 nM	15 nM	60 nM and 55 nM	22 nM and 24 nM	–	–
C=C1CN2CCCC2(COc2nc(N3CCC[C@@](C)(O)C3)c3cc4c(c(F)c3n2)-c2cc(O)cc3ccc(F)c(c23)CCCCCN4)C1 (stereo partly shown) [Example 25]	–	–	112 nM	336 nM	–	–	–	–	–	–
C=C1CN2CCCC2(COc2nc(N3CCC[C@@](C)(O)C3)c3cc4c(c(F)c3n2)-c2cc(O)cc3ccc(F)c(c23)CCCCCN4S(C)(=O)=O)C1 (stereo partly drawn) [Example 45, 3,15-difluoro-11-((R)-3-hydroxy-3-methylpiperidin-1-yl)-13-((2-methylenetetrahydro-1H-pyrazin-7a(5H)-yl)methoxy)-9-(methylsulfonyl)-4,5,6,7,8,9-hexahydronaphtho[1′,8′:4,5,6][1]azacycloundecano[2,3-g]quinazolin-17-ol]	3390 nM	–	3210 nM	4090 nM	–	–	–	–	–	–
C[C@@]1(O)CCCN(c2nc(OCC34CCCN3CCC4)nc3c(F)c4c(cc23)NCCCCCc2c(F)ccc3cccc-4c23)C1 [Example 7, (R)-1-(3,15-Difluoro-13-((tetrahydro-1H-pyrazin-7a(5H)-yl)methoxy)-4,5,6,7,8,9-hexahydronaphtho[1′,8′:4,5,6]azecino[2,3-g]quinazolin-11-yl)-3-methylpiperidin-3-ol]	3470 nM	–	2290 nM	2860 nM	–	–	–	–	–	–
CN1CCCCCc2c(F)ccc3cc(O)cc(c23)-c2c1cc1c(N3CCC[C@@](C)(O)C3)nc(OC[C@@]34CCCN3C[C@H](F)C4)nc1c2F (single isomer, unassigned) [Example 6B]	–	–	–	–	450 nM	–	1370 nM	1040 nM	–	–
CN1CCCCCc2c(F)ccc3cc(O)cc(c23)-c2c1cc1c(N3CCC[C@@](C)(O)C3)nc(OC[C@@]34CCCN3C[C@H](F)C4)nc1c2F (single isomer, unassigned) [Example 6A]	–	–	–	–	30 nM	–	202 nM	127 nM	–	–
O=C1CCCCc2c(F)ccc3cc(O)cc(c23)-c2c(cc3c(N4CC5CCC(C4)N5)nc(OC[C@@]45CCCN4C[C@H](F)C5)nc3c2F)N1 [Example 4]	331 nM	–	848 nM	4870 nM	–	–	–	–	–	–
